Measured values reported in patent publication US20210163404A1, “NOVEL UREA COMPOUNDS AND BIOISOSTERES THEREOF AND THEIR USE FOR TREATING INFLAMMATION AND INFLAMMATION-RELATED PATHOLOGIES” (UNIVERSITÉ LAVAL, priority 2017, published 2021).
Values joined by “and” are separate entries in the source; they are usually repeats but may differ in a detail not shown here. Equal entries are not always repeated.

Experiments:
[1] = tested on: A549 adenocarcinoma alveolar epithelial cancer cells; assay: Antiproliferative activity (NCI procedure, sulforhodamine B), A549; format: cell-based, human; details: Homo sapiens, A549, 48 h; for GI50: Table 2; for IC50: Table 6, unit inferred, tested 781 nM to 100 μM
Outline: (§1)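 Cells seeded in DMEM, grown 24 h at 37 °C, then exposed 48 h to serial dilutions from 100 μM to 781 nM (DMSO <0.5%). TCA fixation, sulforhodamine B staining, absorbance at 530-568 nm; growth inhibition relative to plates fixed on treatment day. At least two experiments in triplicate.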

[2] = tested on: HT-29 colon adenocarcinoma cells; assay: Antiproliferative activity (NCI procedure, sulforhodamine B), HT-29; format: cell-based, human; details: Homo sapiens, HT-29, 48 h; for GI50: Table 2; for IC50: Table 6, unit inferred, tested 781 nM to 100 μM
Outline: as §1

[3] = tested on: HaCaT cells; assay: Cell cycle analysis by flow cytometry; format: cell-based, human; details: for Cell cycle progression G0-G1 / Cell cycle progression G2-M / Cell cycle progression S: 10 μM, 24 h; for effect on cell cycle progression: in words
Method: The effect of compounds 3a-b, 4e, 5b-c, 6a and 6e on cell cycle progression was subsequently assessed using a flow cytometer in accordance with established experimental protocols to evaluate any potential drug toxicity at specific phases of the cell cycle (Table 3).
HaCaT cells (2.5×10^5) were incubated with compounds 3a-b, 4e, 5b-c, 6a and 6e and curcumin (10 μM) over a period of 24 h. The cells were subsequently trypsinized, washed with PBS, resuspended in PBS (250 μL), fixed by the addition of ice-cold EtOH (750 μL) under agitation and stored at −20° C. until analysis. Prior to FACS analysis, cells were washed with PBS and resuspended in PBS (500 μL) containing 4′,6′-diamidino-2-phenylindole (DAPI) (2 μg/mL). The cell cycle was analyzed using an LSR II flow cytometer (BD Biosciences, Franklin Lakes, N.J.).

[4] = tested on: HaCaT keratinocyte cell line; assay: Antiproliferative activity (NCI procedure, sulforhodamine B), HaCaT; format: cell-based, human; details: Homo sapiens, HaCaT, 48 h; for GI50: Table 2; for IC50: Table 6, unit inferred, tested 781 nM to 100 μM
Outline: as §1

[5] = tested on: cancer cell lines; details: background, refs [4, 5]; in words; cited from earlier work
[6] = tested on: IL-6; assay: IL-6 expression in HaCaT cells stimulated with IL-17A and TNFα (ELISA); format: cell-based, human; details: for Expression of IL-6, HaCaT: 10 μM solutions, HaCaT stimulated with IL-17A and TNFα, mean of five experiments in duplicate; for inhibitory effect on IL-6 expression in HaCaT cells: 10 μM, stimulated with IL-17A and TNFα
Excerpt: The effect of compounds 3a-b, 4a-e, 5a-e and 6a-e on the expression of IL-6 was subsequently assessed using the HaCaT spontaneously transformed aneuploid immortal keratinocyte cell line, stimulated by the addition of IL-17A and TNFα in the culture medium (Table 1). Curcumin and ibuprofen were used as known IL-6 expression inhibitors. DMSO was used for solubilizing the drugs. […] Indeed, the inhibitory effect of these molecules was at least equivalent to that of curcumin [27] and ibuprofen, both recognized as anti-inflammatory drugs. The inhibitory effect of the substituted phenyl cycloalkylureas in accordance with an embodiment of the present disclosure on proinflammatory cytokines was also found at the mRNA level. Indeed, the mRNAs of the cytokines IL-6 and TNF-α as well as the mRNA of the chemokine IL-8 were lowered in TNF-α/IL-17A-stimulated HaCaT cells. Similar results were obtained in THP-1 cells stimulated with LPS where treatments with CHEU and 4e diminished the mRNA levels of the cytokines IL-1B, IL-6 and TNF-α in addition to the mRNA levels of the chemokine IL-8. It is surmised that the anti-inflammatory mechanism of action of the compounds of the present disclosure is likely mediated, at least in part, by modulating the phosphorylation state of the MAP kinase p38. […] Addition of a compound in accordance with an embodiment of the present disclosure, prior to stimulation with the aforementioned cytokines, decreases the level of p-p38 at 30-60 minutes post-stimulation. This diminution in p-p38 levels destabilizes the mRNAs of pro-inflammatory cytokines, non-limiting examples of which include TNF-α and IL-6. Moreover, it is surmised that the effect of the compounds of the present disclosure on p-p38 is potentially mediated by the activation of the phosphatase named DUSP1.
HaCaT cells (1×10^5) were suspended in DMEM culture media (500 μL) and incubated for 24 h in 24-well microtiter plates at 37° C. in a moisture-saturated atmosphere containing 5% CO2. Compounds were solubilized in DMSO and diluted in fresh DMEM. The compound (500 μL) was then added to the cell medium to obtain a final concentration of […] and the cells incubated over a period of 1 hour. In the meantime, IL-17α (200 ng/mL) and TNFα (20 ng/mL) (PeproTech, Rocky Hill, N.J.) were added to the drug solution in DMEM. Following the initial incubation of the cells, the culture medium was aspirated from each well and the IL-17α+ TNFα+ compound solution was added to each well for incubation (6 hours). The culture media was then removed and transferred to a clean tube (1.5 mL) at −80° C. until the ELISA test was performed. The presence of IL-6 in the cell media was determined using an IL-6 human Duoset ELISA kit (Fisher Scientific, Ottawa, On.) according to the manufacturer's instructions. Standards and samples were prepared and assessed in duplicate. Two separate replicates were performed for each sample. The absorbance was measured at 450 nm and 540 nm using a TECAN infinite M1000 plate reader.

[7] = tested on: HDFn neonatal dermal fibroblast cell line; assay: Antiproliferative activity (NCI procedure, sulforhodamine B), HDFn; format: cell-based, human; details: Homo sapiens, Fibroblast, 48 h; for GI50: Table 2; for IC50: Table 6, unit inferred, tested 781 nM to 100 μM
Outline: as §1

| Compound | GI50 [1] | GI50 [2] | Cell cycle progression G0-G1 [3] | Cell cycle progression G2-M [3] | Cell cycle progression S [3] | GI50 [4] | antiproliferative activity on numerous cancer cell lines [5] | Expression of IL-6, HaCaT [6] | effect on the expression of IL-6 by HaCaT cells ([6]; HaCaT cells treated with IL-17 and TNFα, in words) | GI50 [7] | effect on cell cycle progression [3] | IC50 [1] | IC50 [2] | IC50 [4] | melting point | inhibitory effect on IL-6 expression in HaCaT cells ([6]; in words) | IC50 [7] |
| --- | --- | --- | --- | --- | --- | --- | --- | --- | --- | --- | --- | --- | --- | --- | --- | --- | --- |
| O=C(NCCCl)Nc1ccc(C2CCCCC2)cc1 [cHCEU, 1-(2-chloroethyl)-3-(p-cyclohexylphenyl)urea, reference compound] | 12 µM | 15 µM | 56.5 | 19.1 | 24.4 | 27 µM | potent antiproliferative activity | 46.8 ± 8.5 pg/mL | significant decrease | 11 µM |  |  |  |  |  |  |  |
| COc1cc(/C=C/C(=O)CC(=O)/C=C/c2ccc(O)c(OC)c2)ccc1O [Curcumin, reference compound] | 9.9 µM | 4.2 µM | 14.8 | 77.1 | 8.1 | 7 µM |  | 62.8 ± 12.0 pg/mL |  | 7.6 µM | clearly arresting the cell cycle progression in the G2-M phase |  |  |  |  |  |  |
| CC(C)(C)c1cccc(NC(=O)NCC2CCC2)c1 [Compound 47, 1-(3-(t-Butyl)phenyl)-3-(cyclobutylmethyl)urea] | 37 µM | 43 µM | 46.1 | 30.4 | 23.5 | 39 µM |  | 47.5 ± 3.3 pg/mL |  | 21 µM |  | 37 µM | 43 µM | 39 µM | 126 to 127 °C | significant inhibitory effect | 21 µM |
| CC(C)Cc1ccc(C(C)C(=O)O)cc1 (stereo not drawn) [Ibuprofen, reference compound] | > 100 µM | > 100 µM | 57.9 | 16.3 | 25.6 | > 100 µM |  | 120.3 ± 18.6 pg/mL |  | > 100 µM |  |  |  |  |  |  |  |
| O=C(NCC1CCC1)Nc1ccc(I)cc1 [Compound 23, 1-(Cyclobutylmethyl)-3-(4-iodophenyl)urea] | 27 µM | 29 µM | 45 | 29.4 | 25.6 | 62 µM |  | 33.9 ± 4.3 pg/mL |  | 74 µM |  | 27 µM | 29 µM | 62 µM | 159 to 160 °C | significant inhibitory effect | 74 µM |
| CC(C)(C)c1ccc(NC(=O)NC2CCCC2)cc1 [Compound 31, 1-(4-(t-Butyl)phenyl)-3-cyclopentylurea] | 83 µM | > 100 µM | 48 | 25.8 | 25.1 | > 100 µM |  | 127.5 ± 17.3 pg/mL |  | > 100 µM | did not affect the cell cycle progression | 83 µM | ≥ 100 µM | ≥ 100 µM | 218 to 223 °C and 219 to 221 °C |  | ≥ 100 µM |
